{
  "source": "patent US9815883B2",
  "about": "“Inhibiting peptides derived from TREM-like transcript 1 (TLT-1) and uses thereof” (Institut National de la Sante et de la Recherche Medicale …, priority 2010, dated 2017)",
  "key": {"[1]": {"system": "TREM-1 ligand binding to immobilized TREM-1", "assay": "Surface plasmon resonance, LPS-stimulated neutrophils supernatants on rsTREM-1-coated sensor chip", "set-up": "species or system human", "details": "FIG. 1D", "experimental": "(C-D) Surface plasmon resonance assays of LPS-stimulated neutrophils supernatants to a rsTREM-1-coated sensorship in absence (C) or presence (D) of LR17.\nDetection of TREM-1-ligand on LPS-stimulated neutrophils supernatants was assessed by binding to a recombinant soluble form of TREM-1 (rsTREM-1) coated on a CM5 sensor chip with the BIAcore X instrument at 25° C. with a flow rate of […]. Binding specificity was verified through competition with the soluble rsTREM-1. Inhibition of TREM-1-ligand binding by LR17 was assessed."}, "TREM-1 [2]": {"system": "TREM-1", "assay": "CARD9-MALT1-BCL10 complex formation (immunoprecipitation) in neutrophils", "format": "cell-based, human", "details": "peptide 30 μg/mL", "experimental": "(B) CARD9-MALT1-BCL10 complex formation: Immunoblot of MALT-1 after immunoprecipitation with anti-BCL10 mAb of lysates of neutrophils stimulated for 20 minutes.\n(B) […] complex formation: Immunoblot of MALT-1 after immunoprecipitation with anti-BCL10 mAb of lysates of neutrophils stimulated for 20 minutes.\nCells were lysed with CytoBuster Protein Extraction Reagent (Novagen). Samples were normalized by total protein concentration and lysates were pre-cleared before performing Immunoprecipitation. Pre-cleared lysates were then incubated overnight at 4° C. with rabbit-anti-Bcl10 mAb (Cell Signaling) or rabbit-anti-CARD9 (Antibodies Online). Thereafter, anti-rabbit-Ig beads (eBioscience) were added for 1 hour at room temperature. Beads were then washed 3 times, denatured in Laemli buffer 5 minutes at 95° C. and centrifuged at 16,000 g for 1 min."}, "TREM-1 [3]": {"system": "TREM-1", "assay": "Cytokine expression and production by stimulated neutrophils and monocytes", "format": "cell-based, human", "experimental": "(E) Cytokines expression: TNF-α mRNA levels in neutrophils stimulated for 6 hours.\n(F) Cytokines production: ELISA of TNF-α in neutrophils treated for 2, 6 and 24 hours\n(F) Cytokines expression: TNF-α mRNA levels in neutrophils stimulated for 6 hours.\n(G-H) Cytokines production: ELISA of TNF-α, in neutrophils treated for 2, 6 and 24 hours.\nDepending on the experiment, cells were stimulated in complete medium supplemented with 100 ng/mL of E. Coli LPS (0111:B4, Sigma-Aldrich), anti-TREM-1 mAb (R&Dsystems) and TLT-1-peptides at different times and concentrations on 96-wells plates (Greiner Bio One). Supernatants were collected for cytokine measurements and cells subjected to flow cytometry or lysed for protein phosphorylation analyses and NFkB activity measurement.\nCytokines in supernatants of stimulated human cells or mouse plasma were measured by ELISA (human and mouse Quantikine ELISA kits, R&Dsystems) and cytokines panel assays (Proteome Profiler Human Cytokine Array Kit, Panel A and Proteome Profiler Mouse Cytokine Array Kit, Panel A, R&Dsystems) according to manufacturers' recommendations."}, "TREM-1 ligand (agonist)": {"system": "TREM-1 ligand (agonist)", "assay": "Immunoblot revealed by mouse anti-TREM-1 mAb (TREM-1 agonist)", "format": "binding", "details": "FIG. 1A", "text": "To determine whether sTLT-1 may specifically bind to the TREM-1 ligand and thus interfere with the TREM-1/TREM-1 ligand interaction, we used a specific TREM-1 agonist known to bind and activate TREM-1, mimicking TREM-1 engagement by its ligand."}, "neutrophils or monocytes": {"system": "neutrophils or monocytes", "assay": "Flow cytometry binding to neutrophils or monocytes", "set-up": "species or system human", "details": "cells not expressing TREM-1 ligand", "experimental": "PMNs were isolated by a Sodium Diatrizoate 13.8%/Dextran 500 8.0% density gradient (polymorphprep, AbCys). Monocytes were isolated by negative cell-sorting of PB-MNCs by Monocytes Isolation Kit II (Miltenyi). Cells were then washed twice with PBS (BioMerieux) and resuspended in complete medium (RPMI 1640 containing 100 UI/mL penicillin, 100 μg/mL streptomycin, […] Amphotericin B and 10% FCS, Eurobio) before stimulation. Purity was assessed by flow cytometry (anti-CD45, -CD14 and -CD66b, Beckman Coulter).\nIsolated cells (neutrophils, monocytes or platelets) were blocked for aspecific binding with 10% human Ig (Sigma-Aldrich) for 1 hour on ice. Cells were incubated with recombinant soluble FITC-labelled TLT-1-peptides, FITC-labelled LP17 (or corresponding FITC-labelled scrambled peptides), PE-labelled anti-TREM-1 mAb (R&Dsystems), CD62P-FITC, CD66b-PE, CD45-PE, CD14-FITC (all from Beckman Coulter)"}, "male Balb/c mice": {"system": "male Balb/c mice", "assay": "LPS-induced endotoxemia in mice", "format": "in vivo, mouse", "experimental": "Male Balb/c mice (20-23 g) were randomly grouped (15 mice per group) and treated with an LD50 of LPS. LR17 (100 μg or 250 μg in 0.2 mL NaCl 0.9%), scrambled-LR17 (100 μg in 0.2 mL NaCl 0.9%), or 0.2 mL NaCl 0.9% was administered 60 min before or 60 minutes after LPS. 4-6 animals per group were sacrificed upon penthotal overdose at 2 and 4 hours after LPS injection and blood was sampled through cardiac puncture. Results are mean±SD. p values are *p<0.05, **p<0.01, ***p<0.001 compared with control animals.\nAfter approval by the local ethical committee, male Balb/c mice (4-6 weeks) were randomly grouped and treated with LPS i.p. in combination with LR17 (in 250 μL normal saline) or LR17-scrambled 1 hour before or after LPS challenge. The viability of mice was examined every hour, or animals were killed at regular intervals. Serum samples were collected by cardiac puncture and assayed for cytokines and sTREM-1 levels by ELISA (R&Dsystems)."}, "TREM-1 [4]": {"system": "TREM-1", "assay": "NF-kB activity measurement (nuclear p50/p65 ELISA) in neutrophils", "format": "cell-based, human", "details": "LPS 0.1 μg/mL with or without αTREM-1; peptide 30 μg/mL", "experimental": "(C) NF-κB nuclear translocation: ELISA of nuclear p50 and p65 NF-kB subunits of neutrophils treated for 2 hours.\nStimulated cells were collected, nuclear extracts obtained by nuclear extraction kit and NFkB activity measured with human p50/p65 combo transcription factor assay kit (Cayman Chemical) following the manufacturers' instructions."}},
  "note": "“Also recorded” adds a separate entry of the source.",
  "data": [
    {"sequence": "LQEEDAGEYGCMVDGAR (listed as Homo sapiens) [LR17]", "values": [
      {"measurement": "binding of the TREM-1 ligand to immobilized TREM-1", "setting": "[1]", "value": "able to block the binding"},
      {"measurement": "CARD9-MALT1-BCL10 complex formation", "setting": "TREM-1 [2]; LPS 0.1 μg/mL with or without αTREM-1", "value": "decreased"},
      {"measurement": "CARD9-MALT1-BCL10 complex formation", "setting": "TREM-1 [2]; αTREM-1 5 μg/mL, 20 minutes", "value": "reversed"},
      {"measurement": "production of TNF-α, IL-6, IL-8, GRO-α, IL-1β, IL-16, MCP-1, MIP-1β and RANTES (broad cytokine arrays)", "setting": "TREM-1 [3]", "value": "decreased production"},
      {"measurement": "LPS associated TNF-α secretion by neutrophils and monocytes, gene and protein level", "setting": "TREM-1 [3]; LPS", "value": "dose-dependently reduced"},
      {"measurement": "synergy of αTREM-1 with LPS for cytokine production", "setting": "TREM-1 [3]; LPS + αTREM-1", "value": "blocked; also recorded: abrogated"},
      {"measurement": "effects in human monocytes and upon TLR2 (Pam3SK4) stimulation", "setting": "TREM-1 [3]; not shown", "value": "confirmed to occur"},
      {"measurement": "cytokine production by activated neutrophils, gene and protein levels (TNF-α, IL-6, IL-8)", "setting": "TREM-1 [3]; αTREM-1 5 μg/mL, peptide 30 μg/mL", "value": "able to decrease cytokine production"},
      {"measurement": "αTREM-1 induced TNF-α production by neutrophils", "setting": "TREM-1 [3]; αTREM-1 alone", "value": "abrogated"},
      {"measurement": "binding to the TREM-1 ligand (TREM-1 agonist, anti-TREM-1 mAb)", "setting": "TREM-1 ligand (agonist)", "value": "able to bind the TREM-1 ligand"},
      {"measurement": "binding to neutrophils or monocytes", "setting": "neutrophils or monocytes", "value": "did not bind"},
      {"measurement": "serum levels of TNF-α, IL-6, IL-10 and sTREM-1", "setting": "male Balb/c mice; 2 and 4 h, pre- and post-treatment, versus controls", "value": "reduced"},
      {"measurement": "survival curve", "setting": "male Balb/c mice; Log Rank test, p=0.0032", "value": "confers a survival advantage"},
      {"measurement": "survival, delayed treatment", "setting": "male Balb/c mice; injected 1 hour after LPS", "value": "significant protection"},
      {"measurement": "comparison of doses (250 μg vs 100 μg) or injection times", "setting": "male Balb/c mice; mouse, in vivo", "value": "no differences between doses or injection times; also recorded: did not confer advantage"},
      {"measurement": "late death", "setting": "male Balb/c mice; over 10 days", "value": "No late death occurred"},
      {"measurement": "survival", "setting": "male Balb/c mice; single i.p. dose 60 min before LPS (LD50, 25 mg/kg)", "value": "All LR17-treated animals survived"},
      {"measurement": "NF-κB translocation", "setting": "TREM-1 [4]", "value": "decreased"}
    ]}
  ]
}
